Measured values from patent publication US20220267365A1, “NOVEL PHOSPHATE ESTER COMPOUND HAVING PYRROLOPYRIMIDINE SKELETON OR PHARMACEUTICALLY ACCEPTABLE SALT THEREOF” (TAIHO PHARMACEUTICAL CO., LTD., priority 2019, published 2022).
Structures can show the parent of a compound that is named as a salt.

How the values were obtained:
[1] = Test Example 2: presence of prodrug in mouse and absorbency, caudal vein administration, plasma AUC; format: in vivo, mice (Balb/cA, male); settings: for AUC(0-t): male, Balb/cA, caudal vein, physiological saline, mouse plasma, unchanged prodrug; for presence of prodrug in mouse (conversion into active compound): caudal vein administration of disodium salts
Procedure: The dosage amounts of a disodium salt of the compound of Example 1, a disodium salt of the compound of Example 2, a disodium salt of the compound of Example 3, a disodium salt of the compound of Example 4 and a disodium salt of the compound of Example 5 were set to be 26 mg/5 mL/kg, 12 mg/5 mL/kg, 12 mg/5 mL/kg, 12 mg/5 mL/kg, and 11 mg/5 mL/kg, respectively. Solutions for administration were prepared by dissolving the compounds in physiological saline so as to satisfy the above dosage amounts, respectively. Note that solutions for administration of disodium salts of the compounds of Examples 1 to 4 were prepared by adding 2 molar equivalents of sodium hydroxide.
Mice (Balb/cA, male) not fasted were each immobilized on a specific fixed table, sterilized with ethanol for disinfection. Each of the solutions prepared above was administered through the caudal vein by use of a syringe and a needle.
Blood was taken from the facial vein, 0.25, 0.5, 1, 2, 4 and 6 hours after administration by use of a specific needle (animal lancet) and a heparin-coated hematocrit tube.
The blood sampled were immediately centrifuged (13000 rpm, 2 minutes, 4° C.) to prepare the plasma samples. After proteins were removed from the plasma samples, the concentrations of the test compound in the plasma samples were measured by LC/MS/MS.
The value of AUC was calculated using analysis software such as Phoenix (registered trademark), WinNonlin (registered trademark).
The AUC (AUC 0-6 hr) values obtained in the time period of 0 to 6 hours after administration of sodium salts of the compounds of Example 1 to 4 are shown in Table 4; and the AUC (AUC 0-6 hr) values obtained in the time period of 0 to 6 hours after administration of a sodium salt of the compound of Example 5 are shown in Table 5. In Table 4 and Table 5, “Comparative Example 1”, “Comparative Example 2” and “Comparative Example 3” represent the “compound (Br form) of Comparative Example 1”, the “compound (I form) of Comparative Example 2”, and the “compound (Cl form) of Comparative Example 3”, respectively.

[2] = test system: DU145; test: Test Example 3 growth suppression activity, CellTiter-Glo; format: cell-based; settings: DU-145, 72 h; DU145, Human prostate cancer, 3 days
Procedure: (§1) Human tumor cell lines different in type were suspended in mediums, seeded in individual wells of a multi-well plate and cultured. On the day after initiation of culture, serially diluted solutions of a compound were added. Culture was carried out for further 3 days. Cells were counted by a CellTiter-Glo (manufactured by Promega KK) in accordance with the protocol recommended by Promega KK. Cell viability was calculated in accordance with the equation shown below and the concentration (IC50 (μM)) of the compound at which 50% of cell growth is inhibited was obtained.
(§2) Cell viability (%)=(T/C)×100
(§3) T: Intensity of light emitted from a well containing a compound
(§4) C: Intensity of light emitted from a well containing no compound

[3] = test system: H358; test: Test Example 4 growth suppression activity, CellTiter-Glo; format: cell-based; settings: NCI-H358, 72 h; H358, Human lung cancer, 3 days
Procedure: as §1, with “(nM))” for “(μM))”
as §2, §3, §4

[4] = test system: H2122; test: as above; format: cell-based; settings: NCI-H2122, 72 h; H2122, Human lung cancer, 3 days
Procedure: as §1, with “(nM))” for “(μM))”
as §2, §3, §4

[5] = test system: A549; test: as above; format: cell-based; settings: 72 h; A549, Human lung cancer, 3 days
Procedure: as §1, with “(nM))” for “(μM))”
as §2, §3, §4

[6] = test system: H1650; test: as above; format: cell-based; settings: NCI-H1650, 72 h; H1650, Human lung cancer, 3 days
Procedure: as §1, with “(nM))” for “(μM))”
as §2, §3, §4

[7] = Test Example 1: presence of prodrug in mouse and absorbency, oral administration, plasma AUC; format: in vivo, mice (Balb/cA, male); settings: for presence of prodrug in mouse (conversion into active compound): oral administration
Procedure: The dosage amounts of the compound of Comparative Example 1, a triethylamine salt of the compound of Example 1, the compound of Comparative Example 2 and the compound of Example 2 were set to be 50 mg/10 mL/kg, 62 mg/10 mL/kg (50 mg/10 mL/kg in terms of free compound), 3 mg/10 mL/kg, and 3.6 mg/10 mL/kg, respectively. Solutions for administration were prepared with a 0.5% aqueous solution of HPMC so as to satisfy the above dosage amounts. Note that a solution for administration of a triethylamine salt of the compound of Example 1 was prepared by adding 1 molar equivalent of triethylamine.
The dosage amounts of the compound of Comparative Example 3 and the compound of Example 5 were set to be 3 mg/10 mL/kg and 3.8 mg/10 mL/kg, respectively. Solutions thereof for administration were prepared with a 0.5% aqueous solution of HPMC so as to satisfy the above dosage amounts.
Note that, the “mg/10 mL/kg” means as follows: for example “50 mg/10 mL/kg” means that 50 mg of a test compound per body-weight (1 kg) of a mouse was dispersed or dissolved in a solution (10 mL) for administering a compound. The same applies hereinafter.
The solutions for administration prepared above were orally administered to mice (Balb/cA, male) not fasted each by use of an oral administration sonde.
The mice were anesthetized with isoflurane 0.5, 1, 2, 4 and 6 hours after administration and blood was taken from the facial vein by use of a specific needle (animal lancet) and a heparin-coated hematocrit tube.
The blood sampled was immediately centrifuged (13000 rpm, 2 minutes, 4° C.) to prepare the plasma samples. After proteins were removed from the plasma samples, the concentrations of the test compound in the plasma samples were measured by LC/MS/MS.
The value of “area under the curve” (AUC) of drug concentration in blood versus time was calculated using analysis software such as Phoenix (registered trademark) WinNonlin (registered trademark).
More specifically, the results of the compounds of Comparative Examples 1 and 2 and triethylamine salt of Example 1, and the compound of Example 2 are shown in Table 2; whereas, the results of the compounds of Comparative Example 3 and Example 5 are shown in Table 3. In Table 2 and Table 3, “Comparative Example 1”, “Comparative Example 2”, and “Comparative Example 3” represent the “compound (Br form) of Comparative Example 1”, the “compound (I form) of Comparative Example 2” and the “compound (Cl form) of Comparative Example 3”, respectively.

[8] = test system: human brain tumor cell line (U-87 MG); test: Test Example 6: antitumor effect and toxicity in mouse, subcutaneous U-87 MG transplant; format: in vivo, BALB/cA Jcl-nu/nu mice
Procedure: The day of grouping mice was determined Day 0.
TV (mm^3)=(major axis×minor axis^2)/2
RTV=(TV on evaluation date)/(TV on Day 0)
IR (%)=(1−(RTV of administration group on evaluation date)/(RTV of control group on evaluation date))×100

[9] = test system: human hematopoietic organ tumor cell line (MV-4-11); test: Test Example 7: antitumor effect and toxicity in mouse, subcutaneous MV-4-11 transplant
Procedure: A human hematopoietic organ tumor cell line (MV-4-11) was subcutaneously transplanted in the right chest of each of BALB/cA Jcl-nu/nu mice. After tumor transplantation, the major axes (mm) and minor axes (mm) of the tumors were measured and tumor volumes (TV) were calculated. The mice were assigned to individual groups such that the average TVs of the groups became equal. The day of grouping mice was determined Day 0.
Thereafter, administration was continued as long as a weight loss was acceptable and then evaluated.
The tumor volumes (TV) and body weights (BW) of individual groups were evaluated. As the indexes of antitumor effect and toxicity, the relative tumor volume (RTV) to that of Day 0 and a body weight change (BWC) relative to that of Day 0 were obtained, respectively, in accordance with the following equations and plotted on a chart.
BWC (%)=(BW on evaluation date−BW on Day 0)/(BW on Day 0)×100
T/C (%)=(Number of blood cell component in administration group/Number of blood cell component in control group)×100

[10] = iv, 12 mg/kg, read-out: AUC 0-6 hr in terms of the administered Example compound

Nc1ncnc2c1c(Br)cn2[C@@H]1O[C@H](COP(=O)(O)O)[C@@H](O)[C@@H]1F [Disodium salt of Example 1, ((2R,3R,4S,5R)-5-(4-amino-5-bromo-7H-pyrrolo[2,3-d]pyrimidin-7-yl)-4-fluoro-3-hydroxytetrahydrofuran-2-yl)methyl dihydrogen phosphate]
AUC(0-t) ([1]; iv, 26 mg/kg, read-out: AUC 0-6 hr in terms of Example 1): 0.15 µM·h

Nc1ncnc2c1c(Br)cn2[C@@H]1O[C@H](CO)[C@@H](O)[C@@H]1F [Comparative Example 1, (2R,3R,4S,5R)-5-(4-amino-5-bromo-7H-pyrrolo[2,3-d]pyrimidin-7-yl)-4-fluoro-2-(hydroxymethyl) tetrahydrofuran-3-ol]
IC50 [2]: 90 nM | IC50 [3]: 69 nM | IC50 [4]: 17 nM | IC50 [5]: 24 nM | IC50 [6]: 11 nM | AUC(0-t) ([7]; male, Balb/cA, oral, 50 mg/kg (0.14 mmol/kg), 0.5% HPMC, mouse plasma, administered compound, read-out: AUC 0-6 hr): 20.2 µM·h

Nc1ncnc2c1c(I)cn2[C@@H]1O[C@H](CO)C(OP(=O)(O)O)C1F (stereo partly drawn) [Disodium salt of Example 4, (2R,3R,4S,5R)-5-(4-amino-5-iodo-7H-pyrrolo[2,3-d]pyrimidin-7-yl)-4-fluoro-2-(hydroxymethyl) tetrahydrofuran-3-yl dihydrogen phosphate]
AUC(0-t) [1, 10]: 9.35 µM·h

Nc1ncnc2c1c(Cl)cn2[C@@H]1O[C@H](COP(=O)(O)O)[C@@H](O)[C@@H]1F [Example 5, ((2R,3R,4S,5R)-5-(4-amino-5-chloro-7H-pyrrolo[2,3-d]pyrimidin-7-yl)-4-fluoro-3-hydroxytetrahydrofuran-2-yl)methyl dihydrogen phosphate]
presence of prodrug in mouse (conversion into active compound) [7]: prodrug of the compound (Cl form) of Comparative Example 3 | presence of prodrug in mouse (conversion into active compound) [1]: prodrug of the compound (Cl form) of Comparative Example

Nc1ncnc2c1c(Br)cn2[C@@H]1O[C@H](COP(=O)(O)O)[C@@H](O)[C@@H]1F [Example 1, ((2R,3R,4S,5R)-5-(4-amino-5-bromo-7H-pyrrolo[2,3-d]pyrimidin-7-yl)-4-fluoro-3-hydroxytetrahydrofuran-2-yl)methyl dihydrogen phosphate]
presence of prodrug in mouse (conversion into active compound) [7]: prodrug of the compound (Br form) of Comparative Example 1 | presence of prodrug in mouse (conversion into active compound) [1]: prodrug of the compound (Br form) of Comparative Example 1

Nc1ncnc2c1c(I)cn2[C@@H]1O[C@H](COP(=O)(O)O)[C@@H](O)[C@@H]1F [Disodium salt of Example 2, ((2R,3R,4S,5R)-5-(4-amino-5-iodo-7H-pyrrolo[2,3-d]pyrimidin-7-yl)-4-fluoro-3-hydroxytetrahydrofuran-2-yl)methyl dihydrogen phosphate]
AUC(0-t) [1, 10]: 0.64 µM·h

Nc1ncnc2c1c(I)cn2[C@@H]1O[C@H](COP(=O)(O)O)[C@@H](O)[C@@H]1F [Example 2, ((2R,3R,4S,5R)-5-(4-amino-5-iodo-7H-pyrrolo[2,3-d]pyrimidin-7-yl)-4-fluoro-3-hydroxytetrahydrofuran-2-yl)methyl dihydrogen phosphate]
continuation of administration compared to Comparative Example 2-compound administration group ([8]; administration continued until weight loss 20% or more, Day 13 vs Day 6): continued longer | effect on body weight (BWC) ([8]; oral 14.4 mg/kg/day every day): mild | antitumor effect (IR based on RTV) ([8]; oral 14.4 mg/kg/day every day, final day of evaluation Day 13, compared with Comparative Example 2 12 mg/kg/day, Day 6): high antitumor effect | continuation of administration compared to Comparative Example 2-compound administration group ([9]; Day 15 vs Day 11 (Comparative Example 2 oral 12 mg/kg/day)): continued longer | effect on body weight (BWC) ([9]; osmotic pump 20 mg/kg/day for 14 days): low | hematological toxicity (lymphocytes, monocytes T/C) ([9]; osmotic pump 20 mg/kg/day for 14 days, Day 15): low | antitumor effect (RTV) ([9]; osmotic pump 20 mg/kg/day for 14 days, final day Day 15): remarkable antitumor effect (tumor regression was confirmed) | presence of prodrug in mouse (conversion into active compound) [7]: prodrug of the compound (I form) of Comparative Example 2

Nc1ncnc2c1c(I)cn2[C@@H]1O[C@H](COP(O)(O)=S)[C@@H](O)[C@@H]1F [Disodium salt of Example 3, O-(((2R,3R,4S,5R)-5-(4-amino-5-iodo-7H-pyrrolo[2,3-d]pyrimidin-7-yl)-4-fluoro-3-hydroxytetrahydrofuran-2-yl)methyl) O,O-dihydrogen phosphorothioate]
AUC(0-t) [1, 10]: 0.18 µM·h

Nc1ncnc2c1c(Cl)cn2[C@@H]1O[C@H](COP(=O)(O)O)[C@@H](O)[C@@H]1F [Disodium salt of Example 5, ((2R,3R,4S,5R)-5-(4-amino-5-chloro-7H-pyrrolo[2,3-d]pyrimidin-7-yl)-4-fluoro-3-hydroxytetrahydrofuran-2-yl)methyl dihydrogen phosphate]
AUC(0-t) ([1]; intravenous, 11 mg/kg, read-out: AUC 0-6 hr in terms of Example 5): 0.08 µM·h
